Reference: US10300451B2, “Method for generating an affinity reagent library” (priority 2013, dated 2019)
“Also recorded” adds a separate entry of the source.

Columns and labels:
[1] = target: T1, cellular αVβ6 (Homo sapiens, UniProt P06756+P18564); test: Screening for integrin specificity by flow cytometry (A375Pβ6 vs A375Ppuro cells); type: cell-based
T1 construct: A375puro endogenously express the RGD directed integrins α5β1, αVβ3, αVβ5 and αVβ8; expressed in transfected cells; host or cells: A375Pβ6 (αVβ6-positive), with A375Ppuro as the αVβ6-negative control
T1 sequence (P06756 31-889 limits assumed): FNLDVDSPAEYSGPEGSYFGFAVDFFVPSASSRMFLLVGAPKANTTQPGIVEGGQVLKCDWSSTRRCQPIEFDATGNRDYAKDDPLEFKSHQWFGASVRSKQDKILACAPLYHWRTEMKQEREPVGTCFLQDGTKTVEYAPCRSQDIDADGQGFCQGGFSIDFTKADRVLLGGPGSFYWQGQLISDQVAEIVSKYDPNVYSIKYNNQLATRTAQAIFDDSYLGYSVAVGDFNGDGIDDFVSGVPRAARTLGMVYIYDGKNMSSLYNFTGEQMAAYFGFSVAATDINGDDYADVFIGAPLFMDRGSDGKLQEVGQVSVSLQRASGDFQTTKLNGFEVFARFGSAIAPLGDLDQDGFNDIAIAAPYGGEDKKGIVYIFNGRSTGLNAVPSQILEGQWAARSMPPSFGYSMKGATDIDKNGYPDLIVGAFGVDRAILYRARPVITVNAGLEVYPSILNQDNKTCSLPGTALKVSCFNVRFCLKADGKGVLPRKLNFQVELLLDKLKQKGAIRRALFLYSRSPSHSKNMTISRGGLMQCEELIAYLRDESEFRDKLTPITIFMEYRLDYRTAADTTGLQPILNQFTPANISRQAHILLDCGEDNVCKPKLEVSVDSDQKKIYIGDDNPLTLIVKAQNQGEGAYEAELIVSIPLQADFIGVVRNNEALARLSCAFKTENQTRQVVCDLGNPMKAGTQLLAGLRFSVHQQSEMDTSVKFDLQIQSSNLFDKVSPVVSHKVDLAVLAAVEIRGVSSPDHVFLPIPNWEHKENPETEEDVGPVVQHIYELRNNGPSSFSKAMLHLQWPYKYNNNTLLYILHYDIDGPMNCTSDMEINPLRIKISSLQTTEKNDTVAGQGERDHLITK
T1 sequence (P06756 891-1048 limits assumed): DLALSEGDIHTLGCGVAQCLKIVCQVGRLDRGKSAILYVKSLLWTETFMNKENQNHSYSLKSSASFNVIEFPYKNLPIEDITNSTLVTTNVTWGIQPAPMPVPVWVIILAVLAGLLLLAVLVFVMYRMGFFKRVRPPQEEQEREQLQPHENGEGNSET
T1 sequence (P18564 22-788): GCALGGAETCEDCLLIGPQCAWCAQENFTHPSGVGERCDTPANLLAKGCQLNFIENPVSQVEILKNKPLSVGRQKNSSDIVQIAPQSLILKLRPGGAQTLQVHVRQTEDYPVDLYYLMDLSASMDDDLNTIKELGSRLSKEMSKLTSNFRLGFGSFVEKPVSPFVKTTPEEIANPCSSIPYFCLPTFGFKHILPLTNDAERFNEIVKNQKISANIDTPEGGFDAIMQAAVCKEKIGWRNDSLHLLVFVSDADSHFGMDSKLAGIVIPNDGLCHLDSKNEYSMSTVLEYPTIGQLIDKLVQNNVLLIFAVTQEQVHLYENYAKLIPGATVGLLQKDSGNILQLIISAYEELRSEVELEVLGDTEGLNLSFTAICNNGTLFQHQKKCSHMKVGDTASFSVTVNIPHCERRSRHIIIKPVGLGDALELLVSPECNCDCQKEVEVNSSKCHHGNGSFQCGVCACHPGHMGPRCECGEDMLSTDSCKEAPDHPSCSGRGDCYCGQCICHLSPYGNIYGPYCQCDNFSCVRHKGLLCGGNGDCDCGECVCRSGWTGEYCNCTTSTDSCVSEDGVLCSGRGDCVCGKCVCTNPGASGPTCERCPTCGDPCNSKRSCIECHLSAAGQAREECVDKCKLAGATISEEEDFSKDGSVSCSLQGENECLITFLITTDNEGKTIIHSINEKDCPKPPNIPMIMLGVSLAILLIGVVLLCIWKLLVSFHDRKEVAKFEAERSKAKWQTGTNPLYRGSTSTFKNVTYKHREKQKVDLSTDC
Method: Purified scFv were tested for specificity for αVβ6 by flow cytometry using the isogenic pairs of cell lines, […] and A375Ppuro, which express similar levels of four RGD-binding integrins (αVβ3, αVβ5, αVβ8, α5β1) but only […] express αVβ6. Briefly, cells were detached with trypsin/EDTA, rinsed twice in ice-cold wash buffer (0.1% BSA/DMEM/0.1% NaN3) and 2×10^5 cells re-suspended in 50 μl of wash buffer per sample. In between all incubation steps, all samples were washed twice with wash buffer unless otherwise stated. Cells were incubated on ice for 1 hr with 0.1 or 1 uM purified scFv of peptide, washed twice. For scFv, cells were then incubated for 1 hr on ice with mouse anti-Myc antibody (clone 9E10, Santa Cruz) at 1:100. After washing, bound antibody was detected with anti-mouse IgG-Alexaflour 488 (1:250 for 1 h; Molecular Probes), on ice. Bound VH-CDR3 derived peptide were detected by rabbit anti-biotin IgG (1:200), followed by anti-rabbit IgG-Alexafluor 488 (1:250; Molecular Probes). Cells were analysed using the FACSCalibur (Beckton Dickinson). Cell expression of αVβ6 integrin was detected with mouse monoclonal antibody (clone 10D5, 10 μg/ml; Millipore) and non-specific (control) binding with non-immune class matched IgG.

[2] = target: T2, αVβ6 (Homo sapiens, UniProt P06756+P18564); test: Inhibition of biotinylated-A20FMDV2 binding to αVβ6 expressing cells; type: cell-based; conditions: scFv or peptide 0.1 and 1.0 μM; biotinylated A20FMDV2 10 nM
T2 construct: A375puro endogenously express the RGD directed integrins α5β1, αVβ3, αVβ5 and αVβ8; expressed in transfected cells; host or cells: αVβ6-expressing cells; The method paragraph names no line
T2 sequence (P06756 31-889 limits assumed): as the sequence (P06756 31-889 limits assumed) above
T2 sequence (P06756 891-1048 limits assumed): as the sequence (P06756 891-1048 limits assumed) above
T2 sequence (P18564 22-788): as the sequence (P18564 22-788) above

[3] = system: αVβ6-dependent adhesion of carcinoma cells to immobilised fibronectin; test: Picogreen adhesion assay on fibronectin; type: cell-based, human; conditions: fibronectin 10 ug/ml
Method: All adhesion assays were performed in quadruplicate and repeated at least 2-3 times. In a 96-well plate format, test wells were coated with Fibronectin (10 ug/ml/PBS) and negative control wells were coated with 0.1% BSA (bovine serum albumin)/PBS. After incubation at 37° C. for 1 hour, plates were washed in PBS thwice and blocked with 0.1% BSA/PBS for 30 mins at 37° C. Following a PBS rinse, cells were seeded into the wells, the plate resting on ice to avoid dehydration and to ensure an initial uniform temperature for the experiment. Purified scFv or peptide was added (25 ul) to the wells at the desired concentrations, before adding 1.5×10^4 cells (25 ul) per well. In some experiments, cells (1.5×10^4) were pre-treated with β1 blocking antibody AIIB2 at 10 ug/ml before seeding into test wells. To determine percentage adhesion, standard curves were generated by plating 0-2.5×10^4 cells in separate wells. After incubating plates at 37° C. for 30′ plates were washed twice in 1 mM CaCl2/0.5 mM MgCl2/PBS and transferred into −80° C. for 15 mins. Adherent cells were quantified using a Picogreen kit (Invitrogen) and analysed on a fluorescence reader (FLUOstar Optima, BMG Labtech Ltd, Bucks, UK).

[4] = system: αVβ6-expressing cells; test: Internalisation assay (confocal microscopy); type: cell-based, human; conditions: for intracellular localisation after incubation: 37° C. for 45 minutes, αVβ6-expressing cells; for cellular internalisation in αVβ6-expressing cells: 37° C., 0 and 45 minutes
Method: In 24-well culture plates, 2×10^4 cells (DX3puro, DX3β6 or VB6) were seeded onto 13 mm diameter glass coverslips and allowed to incubate overnight at 37° C. in growth medium. Cells were washed thwice in serum free medium (SFM) and then scFv (4 uM) or biotinylated-CDR3-peptide (100 nM) diluted in SFM added on ice for 10 mins. After two ice-cold washes and a further 10 mins on ice with mouse anti-biotin antibody (10 ug/ml) pre-warmed media containing 10% FCS was added to the cells and incubated at 37° C. At 10 min intervals between 0-60 mins, cells were fixed in 2% HCHO in PBS and permeabilised with 0.1% TritonX-100 (PBS) for 3 mins. scFv was detected with mouse anti c-myc (1:100 dilution, clone 9E10; 30 mins, ambient temperature) and followed by while peptides were detected by rabbit anti-biotin IgG (1:200). Both peptide and scFv detected with anti-mouse Alexa488 for 30′. Nuclei were counter-labelled with 4′,6-diamidino-2-phenylindole (DAPI), coverslips mounted with Mowiol and samples examined by confocal microscopy (Zeiss LSM510, Welwyn Garden City).

Sequence | binding to αVβ6-expressing cells (flow cytometry) [1] | inhibition of binding of A20FMDV2 peptide to cellular αvβ6 [2] | inhibition of αVβ6-dependent adhesion of carcinoma cells to immobilised fibronectin [3] | intracellular localisation after incubation [4] | cellular internalisation in αVβ6-expressing cells [4] | cellular internalisation in αVβ6-negative cells [4]
EPRGDLRTLAAREKRNFNETLARLQEKGI (Peptide sequence comprising RGD motif followed by a C-terminal alpha-helix or 3(10)-helix) [D25p] | αVβ6-specific binding | dose-dependent inhibition | inhibited; also recorded: significant concentration-dependent inhibition | nuclear localisation was not seen | Internalisation | No peptide internalization was observed
QPRGDLRELAARSEAQLQEKGI (Peptide sequence comprising RGD motif followed by a C-terminal alpha-helix or 3(10)-helix) [D34p] | αVβ6-specific binding | dose-dependent inhibition | inhibited; also recorded: significant concentration-dependent inhibition | nuclear localisation was not seen | Internalisation | No peptide internalization was observed
